According to patent publication USRE38332E1, “Selected soluble esters of hydroxyl-containing indolocarbazoles” (Cephalon, Inc., priority 1995, dated 2003):

Columns and labels:
[1] = system: ChAT activity in spinal cord cultures; assay: Effect of indolocarbazole esters on ChAT activity in dissociated spinal cord cultures; assay type: cell-based, rat
Procedure: The effect of indolocarbazole esters of the invention on ChAT activity was assayed in dissociated spinal cord cultures prepared from fetal rats. ChAT is the enzyme that catalyzes the synthesis of the neurotransmitter acetylcholine, and it is a specific biochemical marker for cholinergic neurons. In the spinal cord, the large majority of cholinergic neurons are motor neurons. Assay of this enzyme may thus be used as an indication of the effects of a factor (or factors) on the survival and/or differentiation of cholinergic neurons and/or regulation of this enzyme. The procedure used for the assay is that described in Example 6 of WO 94/02488. Fourteen esters were tested in the spinal cord ChAT assay to determine their relative efficacy, and the results are summarized in Table 4.

[2] = Stability of the esters in buffered solution (conversion to indolocarbazole I-5, HPLC); assay type: physicochemical; details: buffer solutions, 24 hours
Procedure: Solution 5 was a DMSO control.
HPLC conditions were as follows:
The pH of the compounds in water varied from 2 to 5 while the buffers remained approximately the same at 3.6, 6.7 and 7.8 for the 10 mM acetate, phosphate and Tris, respectively.
Acetate buffers at pH 2, 3, 4, 5 and 6 were prepared as follows. A total of 6.8 g of sodium acetate trihydrate was added to one liter of water, and the mixture was stirred until the solid was completely dissolved. One hundred ml aliquots were placed into 150 ml Erlenmeyer flasks, and the pH values were adjusted with HCl to pH 2, 3, 4, 5, and 6. A concentration of 50 mM was chosen to reduce the effects of compound addition. The indolocarbazole ester of Example 14 was investigated only with the acetate buffers. The rates of conversion of I-5 (the appearance of indolocarbazole I-5) as a function of pH are shown in FIGS. 3, 4, and 5 for the indolocarbazole esters of Examples 14, 8, and 11, respectively.

[3] = In vitro metabolism of I-5 esters in rat liver S-9 fraction; assay type: in vitro ADME; details: 2 mg/mL protein, 5000 ng/mL
Procedure: (§1) Rat and human liver S-9 fractions (a mixture of cytosol and microsomes) were frozen immediately after preparation. Each aliquot was thawed once for use in incubations. Stock solutions of the indolocarbazole esters were prepared in DMSO. These were used to prepare standard curves in heat inactivated S-9 fraction that had been diluted with 0.2M phosphate buffer, pH 7.4 to yield a 2 mg/mL protein concentration. Heat inactivated S-9 was divided into 500 μL aliquots, mixed with an aliquot of the internal standard, and spiked with the respective stock ester solutions to prepare the standard curve. Incubations containing liver S-9 fraction were prepared by diluting the S-9 fraction in 0.2M phosphate buffer, pH 7.4 to yield a 2 mg/mL protein concentration. Samples (500 μL) were placed in screw-cap vials, mixed with internal standard, and spiked with stock solutions of the respective esters to yield a nominal concentration of 5000 ng/mL.
(§2) Incubations were then performed at 37° C. in a shaking water bath for 0, 0.5, 1, 2, 5, 10, 15, 30, and 60 minutes and quenched by addition of 5 mL methylene chloride. All tubes (standards and experimentals) were extracted for 15 minutes by shaking, and centrifuged. The methylene chloride layer was removed, dried under a stream of nitrogen, and reconstituted in DMSO. Fifty μL of the reconstituted extracts were analyzed by reverse-phase HPLC with detection at 290 nm. The mobile phase and gradient conditions are given below: […]

[4] = In vitro metabolism of I-5 esters in human liver S-9 fraction; assay type: in vitro ADME; details: 2 mg/mL protein
Procedure: as §1
as §2, with “The methylene chloride layer was removed, dried under a stream of nitrogen, and reconstituted in DMSO.” left out, “nm.” for “nm. The mobile phase and gradient conditions are given below:”

[5] = In vivo metabolism and intravenous pharmacokinetics of I-5 esters in male Sprague-Dawley rats; details: intravenous, rat; for hydrolysis to indolocarbazole I-5 in vivo: 5 mg/kg dose of I-5 equivalent
Procedure: Groups of 12 male Sprague-Dawley rats were administered either DMAB dihydrochloride or β-alaninate hydrochloride through the lateral tail vein in a vehicle consisting of 0.05M acetate buffer, pH 5.0 containing 20% polyethylene glycol. The volume of the dosing solution was adjusted on the basis of body weight to deliver a 5 mg/kg dose of indolocarbazole I-5 after complete hydrolysis of the respective indolocarbazole ester. At 5, 30, 60, and 120 minutes after injection, the animals were anesthetized with carbon dioxide and a sample of whole blood was obtained by cardiac puncture. The blood was placed into a 10 mL heparinized tube containing 100 μL 50% potassium fluoride (an inhibitor of plasma esterases). Following centrifugation, the resulting plasma was frozen in a dry-ice/isopropanol bath and kept frozen at −90° C. prior to analysis.
(§3) For analysis, the samples were thawed, internal standard was added, and the mixture was extracted with 5 mL methylene chloride. Standards in rat plasma were prepared as described previously. All tubes (standards and experimentals) were extracted for 15 minutes by shaking, and centrifuged. The methylene chloride layer was removed, dried under a stream of nitrogen, and reconstituted in DMSO. Fifty μL of the reconstituted extracts were analyzed by reverse-phase HPLC with detection at 290 nm. The mobile phase and gradient conditions are the same as those given in Example 17.

[6] = Solubility of the esters at 1 mg/ml in water and buffer solutions; details: for solubility in Tris buffer: 10 mM Tris buffer pH 9; for solubility in acetate buffer: 10 mM acetate buffer pH 4; for solubility in phosphate buffer: 10 mM phosphate buffer pH 7; for solubility in water: water (Solution 1)
Procedure: Indolocarbazole esters were dissolved in water, dimethylsulfoxide (DMSO) and the following buffer solutions to determine solubility and to observe conversion to indolocarbazole I-5. Samples were analyzed by HPLC using UV detection at 290 nm.
Solution 2 was a 10 mM acetate buffer at pH 4 which was prepared by weighing 0.68 g of sodium acetate 3H2O into 500 ml of water and adjusting the pH with acetic acid.
Solution 3 was a 10 mM phosphate buffer, pH 7, which was prepared by weighing 0.30 g of monobasic sodium phosphate and 0.36 g of dibasic sodium phosphate into 500 ml of water, stirring until completely dissolved, and adjusting the pH with hydrochloric acid.
Solution 4 was a 10 mM Tris buffer, pH 9, which was prepared by weighing 0.79 g of Tris (tris(hydroxymethyl)aminomethane hydrochloride) into 500 ml of water, stirring until completely dissolved, and adjusting the pH with sodium hydroxide.
Sample solutions were prepared by weighing 0.5-1 mg of the indolocarbazole ester into an amber 1.5 ml autosampler vial, to which the appropriate quantity of one of the buffer solutions was added, in order to achieve a final concentration of 1 mg/ml. The sample solutions were vortexed and sonicated for 10 minutes. Fifty μl aliquots were placed into 1.5 ml amber autosampler vials. The reaction was quenched at a selected time interval by addition of 450 μl DMSO to the vial.

[7] = Route-to-route comparison of indolocarbazole I-5 formation from lysyl-β-alaninate in rats; assay type: in vivo, rat; details: for plasma levels of indolocarbazole I-5: intravenous 8.01 mg/kg
Procedure: Groups of 12 male Sprague-Dawley rats were administered lysyl-β-alaninate dihydrochloride via intravenous or subcutaneous injection, as well as by oral gavage at a dose of 8.01 mg/kg. This dose was designed to deliver a 5 mg/kg equivalent dose of indolocarbazole I-5 following complete hydrolysis of the indolocarbazole ester. The volume of the dosing solution was adjusted on the basis of body weight. At 5, 30, 60, and 120 minutes after intravenous injection and 30, 60, 120, and 240 minutes after either subcutaneous injection or oral gavage, the animals were anesthetized with carbon dioxide and a sample of whole blood was obtained by cardiac puncture. The blood was placed into a heparinized container containing 100 μL 50% potassium fluoride (an inhibitor of plasma esterases) and 10 μL phenylmethylsulfonylfluoride (an inhibitor of plasma amidase). Following centrifugation, the resulting plasma was frozen in a dry-ice/isopropanol bath and kept frozen at −90° C. prior to analysis.
as §3, with “extracts was” for “extracts were”

[8] = system: Dunning R-3327 AT-2 rat prostate tumor; assay: Anti-tumor efficacy against the androgen-independent AT-2 rat prostate tumor; assay type: in vivo; details: for Tumor volume Day 0: Day 0, daily sc dosing; for Tumor volume Day 0 / Tumor volume Day 3 / Tumor volume Day 6 / Tumor volume Day 9 / Tumor volume Day 13: Mean ± SE; for Tumor volume Day 3: Day 3, daily sc dosing; for Tumor volume Day 6: Day 6, daily sc dosing; for Tumor volume Day 9: Day 9, daily sc dosing; for Tumor volume Day 13: Day 13, daily sc dosing; for inhibiting the growth of AT-2 tumors: adult male Copenhagen rats; for inhibition of tumor growth: by Day 13 of dosing
Procedure: Rat prostate cancer Dunning R-3327 AT-2.1 cells (Isaacs et al., Prostate 9:261-281, 1986) were grown at 37 C. in a humidified incubator, with a 95% air/5% CO2 atmosphere, in RPMI-1640 medium containing 10% fetal calf serum, 250 nM dexamethasone, 2 mM glutamine, penicillin (100 I.U./mL), and streptomycin (100 μg/mL), and 1 mM sodium pyruvate. The cells were determined to be free of mycoplasma and rodent viruses (MAP testing) by Microbiological Associates. Exponentially growing cells were harvested using 6 mL of warm trypsin. The total volume was brought up to 10 mL with media to neutralize trypsin and cells were counted. The cells were then collected by brief centrifugation, and cell pellet was resuspended in Hanks' Balanced Salt Solution to achieve the final concentration of 1×10^7 live cells/mL.
Male inbred Copenhagen rats (200-225 g) obtained from Harlan Sprague-Dawley, Indianapolis, Ind., were maintained three rats/cage and given a commercial diet (Purina Formulab 5001) and water ad libitum. Animals were housed under humidity- and temperature-controlled conditions and light/dark cycle was set at 12-hour intervals. Rats were quarantined for one week before experimental manipulation. Tumor cell implantation and growth
Fifty adult male Copenhagen rats were inoculated with live AT-2 cells (1×10^6 cells/rat) into their right flank. Seven days later, rats bearing AT-2 tumors (approximately 0.5‥0.7 cm^3 in volume) were divided into five groups of ten animals each. A description of the experimental groups is given below. Dosing volumes of either I-5 or its lysyl-β-alaninate ester (1 mL/kg) were based on the average weight of the animals in each dosing group and were adjusted as necessary twice a week. Tumors were measured in anesthetized animals (isofluorane vapor for approximately 1-2 minutes) every 3-4 days using a vernier caliper. Tumor volume was calculated using the formula:
V(cm)=0.5236×length(cm)×width(cm)[(length(cm)+width(cm))/2].
Indolocarbazole I-5 was dissolved in vehicle defined below:
(I-5)-Lysyl-β-alaninate was dissolved in 50 mM sodium acetate buffer, pH 5.5.

[9] = system: Dunning R-3327 AT-2 rat prostate tumor; details: see WO 94/27982; cited from earlier work

Row | SMILES | Spinal Cord ChAT Activity (% of Control) 500 nM [1] | Spinal Cord ChAT Activity (% of Control) 1000 nM [1] | rate of conversion to indolocarbazole I-5 [2] | hydrolysis of the ester [3] | rates of hydrolysis [4] | hydrolysis to indolocarbazole I-5 in vivo [5] | time ester could be detected in plasma following administration [5] | solubility in Tris buffer [6] | solubility in acetate buffer [6] | solubility in phosphate buffer [6] | solubility in water [6] | Tumor volume Day 0 [8] [cm^3] | Tumor volume Day 3 [8] [cm^3] | Tumor volume Day 6 [8] [cm^3] | Tumor volume Day 9 [8] [cm^3] | Tumor volume Day 13 [8] [cm^3] | inhibiting the growth of AT-2 tumors [8] | inhibition of tumor growth [8] [%] | other results
1 | COC1(COC(=O)CC(C)N(C)C)CC2OC1(C)n1c3ccccc3c3c4c(c5c6ccccc6n2c5c31)C(=O)NC4.Cl (stereo not shown) [Example 8, (I-5)-Dimethylaminobutyrate Hydrochloride] | inactive | 138 % of Control | low rate of conversion | rapid hydrolysis | similar | rapidly hydrolyzed | two | not completely soluble | completely soluble | not completely soluble | completely soluble | – | – | – | – | – | – | – | –
2 | COC1(COC(=O)CCN)CC2OC1(C)n1c3ccccc3c3c4c(c5c6ccccc6n2c5c31)C(=O)NC4.Cl (stereo not drawn) [Example 11, (I-5)-β-Alaninate Hydrochloride] | 138 % of Control | 149 % of Control | – | rate of hydrolysis was markedly reduced | similar | rapidly hydrolyzed | one | not completely soluble | completely soluble | not completely soluble | completely soluble | – | – | – | – | – | – | – | –
3 | COC1(COC(=O)CCNC(=O)C(N)CCCCN)CC2OC1(C)n1c3ccccc3c3c4c(c5c6ccccc6n2c5c31)C(=O)NC4.Cl.Cl (stereo not drawn) [Example 14, (I-5)-Lysyl-β-Alaninate Dihydrochloride] | 121 % of Control | 147 % of Control | low rate of conversion | initial hydrolysis of the amide bond between the two amino acids appears to be the first metabolic event followed by hydrolysis of the ester linkage | – | – | – | completely soluble | completely soluble | completely soluble | completely soluble | 0.6 ± 0.1 | 1.5 ± 0.2 | 2.1 ± 0.2 | 4.8 ± 0.6 | 8.3 ± 0.5 | effective | 72 | plasma levels of indolocarbazole I-5 ([7]; 5 minutes after dosing): approximately 600 ng/mL; plasma levels of indolocarbazole I-5 ([7]; 2 hours after dosing): approximately 80 ng/mL; plasma levels of I-5 ([7]; oral dose 8.01 mg/kg, limit of quantitation): < 50 ng/mL; conversion to I-5 in vivo ([7]; rat): rapidly converted; plasma levels of I-5 ([7]; subcutaneous 8.01 mg/kg, all time points examined): approximately 70 ng/mL
4 | COC1(CO)CC2OC1(C)n1c3ccccc3c3c4c(c5c6ccccc6n2c5c31)C(=O)NC4 (stereo not shown) [Example I-5, reference compound] | – | – | – | – | – | – | – | – | – | – | – | 0.7 ± 0.1 | 1.6 ± 0.2 | 2.1 ± 0.1 | 5.4 ± 0.7 | 11.6 ± 1.8 | effective | 53 | growth inhibition of Dunning R-3327 AT-2 rat prostate tumor in vivo [9]: growth inhibitory properties
